Data as given in PubChem BioAssay AID1919013 (Molecular Pharmacology Branch, DTP, NCI, 2023).

Tested on: LG0703-F498-PDC complex spheroid growth
Experiment: Anticancer human tumor LG0703-F498-PDC patient-derived lung adenocarcinoma cell line growth inhibition [AhR]
Details: for IC50: curve of first compound; for viability, T/C: stronger effect = lower value
From the text: Multicellular complex tumor spheroid response to aryl hydrocarbon receptor antagonists in combination with a variety of drugs and investigational agents in selected tumor cell lines
The current study was undertaken to assess response to aryl hydrocarbon receptor antagonists in combination with standard-of-care drugs and investigational agents in solid tumor complex spheroid models. Complex spheroids include a stromal component modeled by human endothelial cells (HUVEC) and fibroblasts modeled by human mesenchymal stem cells (MSCs). The concentration ranges selected for each drug and investigational agent were based upon clinically achievable concentrations if the clinical Cmax of the agent was known.
Compounds. The drugs and investigational agents: BAY 2416964 (NSC825713), GNF351 (NSC835774), CH-223191 (NSC835775), CPI-455 (NSC825282), aza-TdCyd (NSC777586), decitabine (NSC127716), belinostat (NSC758774), entinostat (NSC756642), pevonedistat (NSC761192), tazemetostat (NSC777109), talazoparib (NSC765396), olaparib (NSC753686), selinexor (NSC780203), nedisertib (M3814, NSC802822), bortezomib (NSC756655), venetoclax (NSC766270), doxorubicin (NSC123127), elimusertib (BAY189344, NSC800525), ceralasertib (AZD6738, NSC777638), TAK-243 (NSC785004), alisertib (NSC759677), etoposide (NSC141540), topotecan (NSC609699), eribulin (NSC707389), gemcitabine (NSC613327), carboplatin (NSC241240), cisplatin (NSC119875), and SN-38 (NSC673596) were obtained from the National Cancer Institute (NCI) Developmental Therapeutics Program Chemical Repository (32). The FDA-approved anticancer drug set is available from the Developmental Therapeutics Program at https://dtp.cancer.gov/organization/dscb/obtaining/available plates.htm. […] The stock solutions were prepared in dimethyl sulfoxide (DMSO, Sigma-Aldrich, St. Louis, MO, cat. D2650), except for the platinum compounds which were prepared in saline (Quality Biological, Gaithersburg, MD, cat. 114-055-101), at 800-fold the tested concentration and stored at -70 degrees C prior to their use. All drugs and investigational agents were tested over a range starting from a high concentration at or near the clinical Cmax and decreasing in half-log increments. If the clinical Cmax for an agent had not been determined, the highest concentration tested was 10 microM (Table 1).
Cell Culture. All cells were maintained in an incubator at 37 degrees C and 5% CO2 with 95% humidity. The PDC lines were cultured according to standard operating procedures established by the NCI PDMR (https://pdmr.cancer.gov). Briefly, all PDCs were thawed and cultured in Matrigel-coated flasks prepared with a working solution of 1X Ham's F-12 nutrient mix, without supplementation (Invitrogen, Waltham, MA, cat. 11765054), 100 U/mL penicillin-streptomycin (Invitrogen, cat. 15140122), and 2.5% Matrigel (Corning Inc., Corning, NY, cat. 354248) for the first three passages. All PDCs were cultured in complete DMEM/F-12 media containing advanced DMEM/F-12 (Invitrogen, cat. 12634028), 4.9% defined fetal bovine serum, heat inactivated (HyClone Laboratories Inc., Logan, UT, cat. SH30070.03HI), 389 ng/mL hydrocortisone (Sigma-Aldrich, cat. H4001), 9.7 ng/mL human EGF recombinant protein (Invitrogen, cat. PHG0313), 23.4 microg/mL adenine (Sigma-Aldrich, cat. A2786), 97.3 U/mL penicillin-streptomycin (Invitrogen, cat. 15140122), 1.9 mM L-glutamine (Invitrogen, cat. 25030081), and 9.7 microM Y-27632 dihydrochloride (Tocris Bioscience, Bristol, United Kingdom, cat. 1254). The PDCs were cultured in complete DMEM/F12 media without 10 microM Y-27632 dihydrochloride for at least two passages prior to the screen. The established cell lines NCI-H1341 and […] were cultured in DMEM/F-12, HEPES (Invitrogen, cat. 11330032), 5% defined fetal bovine serum (HyClone Laboratories Inc., cat. SH30070.03), ITS premix universal culture supplement [insulin (5 microg/mL), transferrin (5 microg/mL), and selenious acid (5 ng/mL)] […]
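Note: luminescence taken as a proxy for viable cell amount.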
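Throughout, for viability, T/C: percent of DMSO vehicle control where 100% means growth equal to vehicle.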

**Q.** Which IC50 (second compound 0.1 µM) does the source give for `CCN(c1cc(-c2ccc(CN3CCOCC3)cc2)cc(C(=O)NCc2c(C)cc(C)[nH]c2=O)c1C)C1CCOCC1` + Cc1cncc(-c2nc(NCCc3c[nH]c4ccccc34)c3ncn(C(C)C)c3n2)c1 here?
**A.** The IC50 was > 3 µM.

**Q.** What about the IC50 (second compound 0.316 µM) of the same compound?
**A.** The IC50 was > 3 µM.

**Q.** And the IC50 (second compound 1 µM)?
**A.** The IC50 was > 3 µM.

**Q.** And the IC50 (second compound 3.16 µM)?
**A.** The IC50 was < 0.00949 µM.

**Q.** What about the IC50 (second compound 10 µM) of the same compound?
**A.** Its IC50 is < 0.00949 µM.

**Q.** What about the viability, T/C (second compound 0.1 µM, first compound 0.00949 µM) of the same compound?
**A.** Its viability, T/C is 106%.

**Q.** And the viability, T/C (second compound 0.1 µM, first compound 0.03 µM)?
**A.** The viability, T/C was 110%.

**Q.** What about the viability, T/C (second compound 0.1 µM, first compound 0.0949 µM) of the same compound?
**A.** Its viability, T/C is 106%.

**Q.** What about the viability, T/C (second compound 0.1 µM, first compound 0.3 µM) of the same compound?
**A.** The viability, T/C was 102%.

**Q.** What about the viability, T/C (second compound 0.1 µM, first compound 0.949 µM) of the same compound?
**A.** Its viability, T/C is 121%.

**Q.** And the viability, T/C (second compound 0.1 µM, first compound 3 µM)?
**A.** The viability, T/C was 123%.

**Q.** What about the viability, T/C (second compound 0.316 µM, first compound 0.00949 µM) of the same compound?
**A.** The viability, T/C was 118%.

**Q.** And the viability, T/C (second compound 0.316 µM, first compound 0.03 µM)?
**A.** The viability, T/C was 104%.

**Q.** And the viability, T/C (second compound 0.316 µM, first compound 0.0949 µM)?
**A.** The viability, T/C was 120%.

**Q.** What about the viability, T/C (second compound 0.316 µM, first compound 0.3 µM) of the same compound?
**A.** The viability, T/C was 104%.

**Q.** And the viability, T/C (second compound 0.316 µM, first compound 0.949 µM)?
**A.** Its viability, T/C is 106%.

**Q.** What about the viability, T/C (second compound 0.316 µM, first compound 3 µM) of the same compound?
**A.** The viability, T/C was 125%.

**Q.** And the viability, T/C (second compound 1 µM, first compound 0.00949 µM)?
**A.** The viability, T/C was 119%.

**Q.** And the viability, T/C (second compound 1 µM, first compound 0.03 µM)?
**A.** Its viability, T/C is 110%.

**Q.** And the viability, T/C (second compound 1 µM, first compound 0.0949 µM)?
**A.** The viability, T/C was 112%.

**Q.** And the viability, T/C (second compound 1 µM, first compound 0.3 µM)?
**A.** The viability, T/C was 111%.

**Q.** What about the viability, T/C (second compound 1 µM, first compound 0.949 µM) of the same compound?
**A.** The viability, T/C was 109%.

**Q.** And the viability, T/C (second compound 1 µM, first compound 3 µM)?
**A.** Its viability, T/C is 120%.

**Q.** And the viability, T/C (second compound 3.16 µM, first compound 0.00949 µM)?
**A.** The viability, T/C was 30.5%.

**Q.** And the viability, T/C (second compound 3.16 µM, first compound 0.03 µM)?
**A.** Its viability, T/C is 26.3%.

**Q.** And the viability, T/C (second compound 3.16 µM, first compound 0.0949 µM)?
**A.** Its viability, T/C is 29.8%.

**Q.** What about the viability, T/C (second compound 3.16 µM, first compound 0.3 µM) of the same compound?
**A.** The viability, T/C was 30.8%.

**Q.** What about the viability, T/C (second compound 3.16 µM, first compound 0.949 µM) of the same compound?
**A.** Its viability, T/C is 27.9%.

**Q.** What about the viability, T/C (second compound 3.16 µM, first compound 3 µM) of the same compound?
**A.** Its viability, T/C is 35.5%.

**Q.** What about the viability, T/C (second compound 10 µM, first compound 0.00949 µM) of the same compound?
**A.** The viability, T/C was 1.09%.

**Q.** And the viability, T/C (second compound 10 µM, first compound 0.03 µM)?
**A.** The viability, T/C was 1.47%.

**Q.** And the viability, T/C (second compound 10 µM, first compound 0.0949 µM)?
**A.** Its viability, T/C is 1.79%.

**Q.** What about the viability, T/C (second compound 10 µM, first compound 0.3 µM) of the same compound?
**A.** Its viability, T/C is 1.93%.

**Q.** And the viability, T/C (second compound 10 µM, first compound 0.949 µM)?
**A.** Its viability, T/C is 0.83%.

**Q.** And the viability, T/C (second compound 10 µM, first compound 3 µM)?
**A.** Its viability, T/C is 1.74%.
